Experiments:
fluorescent AGEs = assay: Quantitative determination of fluorescent AGEs after reaction at 37° C. for 42 days; assay type: biochemical; conditions: for Fluorescent AGEs: 37° C., 42 days
Protocol: After 0.4 g of a high molecular weight fraction and 8 mL of 6N hydrochloric acid were charged in an ampule and the air in the ampule was replaced with nitrogen, hydrolysis was performed at 110° C. for 16 hours in a heat block. After reaction, 8 mL of 5N sodium hydroxide was added, and pH was adjusted using 1N hydrochloric acid and 1N sodium hydroxide to make pH within a range of 7.2 to 7.6. Then, the solution was filtered through a 0.45 μm filter. Using the thus obtained filtrate as a sample, fluorescent AGEs were quantitatively determined using the following methods. After weighing 2.5 mg of a standard substance perylene, the standard substance perylene was fully dissolved in 10 mL of deaerated ethanol added thereto to prepare a perylene solution. The perylene solution diluted to the concentration of 10 μM was exposed to excitation light with a wavelength of 386 nm and then the area was calculated by measuring a fluorescence intensity ranging from 410 to 600 nm. Meanwhile, the sample was exposed to excitation light with a wavelength of 380 nm and then the area was calculated by measuring a fluorescence intensity ranging from 400 to 600 nm. By considering the area measurement value of the sample as a value relative to the area value of the 10 μM perylene solution, fluorescent AGEs were determined.
(§1) Amino acid or biological protein, carbohydrates and a phosphate buffer solution were charged in a 50 mL polypropylene centrifuge tube in each amount shown in Table 8, followed by sealing and stirring, and then the mixture was reacted in an incubator at 37° C. for 42 days. Next, the reactant was fractionated by centrifugation at 3,000 rpm for 3 hours using an ultrafiltration unit (VIVA SPIN 20, manufactured by Sartorius Corporation). The obtained low molecular weight fraction was used as a sample for determination of 3-DG, while the obtained high molecular weight fraction was used as a sample for the determination of fluorescent AGEs. Amino acid, biological protein and carbohydrates used are as follows:
In the same manner as in Test Example 1, except that the low molecular weight fraction prepared as mentioned above was used as a sample, quantitative determination of 3-DG was performed. In the same manner as in Test Example 2, except that the high molecular weight fraction prepared as mentioned above was used as a sample, determination of fluorescent AGEs was performed.
(§2) Amino acid, carbohydrates and a phosphate buffer solution were charged in a 50 mL polypropylene centrifuge tube in each amount shown in Table 10, followed by sealing and stirring, and then the mixture was reacted in an incubator at 37° C. for 42 days. Next, the reactant was filtered through a 0.2 μm filter and the obtained filtrate was used as a sample. Amino acid and carbohydrates used are as follows:
After weighing 2.5 mg of a standard substance perylene, the standard substance perylene was fully dissolved in 50 mL of deaerated ethanol added thereto to prepare a perylene solution. The perylene solution diluted to the concentration of 10 μM was exposed to excitation light with a wavelength of 386 nm and then the area was calculated by measuring a fluorescence intensity ranging from 410 to 600 nm. Meanwhile, the sample was exposed to excitation light with a wavelength of 380 nm and then the area was calculated by measuring a fluorescence intensity ranging from 400 to 600 nm. By considering the area measurement value of the sample as a value relative to the area value of the 10 μM perylene solution, fluorescent AGEs were quantitatively determined.
Biological proteins, carbohydrates and a phosphate buffer solution are charged in a 50 mL polypropylene centrifuge tube in each amount shown in Table 12, followed by sealing and stirring, and then the mixture was reacted in an incubator at 37° C. for 42 days. Next, the reactant was fractionated by centrifugation at 3,000 rpm for 3 hours using an ultrafiltration unit (VIVA SPIN 20, manufactured by Sartorius Corporation). […]

pentosidine = assay: Quantitative determination of pentosidine after reaction at 37° C. for 42 days; assay type: biochemical; conditions: for Pentosidine: 37° C., 42 days
Protocol: as §2
Using a pentosidine measurement kit “FSK Pentosidine (registered trademark)” (manufactured by Fushimi Pharmaceutical Co., Ltd.), quantitative determination of pentosidine was performed in the following manner. Thirty (30) or more minutes before use, reagents and pentosidine solid-phase plates were put to room temperature. After dilution of the sample, a 50 μL aliquot of the sample was dispensed to a pentosidine solid-phase plate attached to the kit, and 50 μL of a first antibody solution was dispensed into wells other than the wells for measurement of reagent blank value. After the sample and the antibody solution were mixed by shaking the plate at 300 rpm for 1 minute, the solution was reacted at 37° C. for 1 hour. Next, the reaction solution was discarded, and 200 μL of rinsing fluid was dispensed to wash the plate. The washing was performed for 3 times. After liquid on the plate was removed, 100 μl of a second antibody solution was dispensed into wells other than the wells for measurement of reagent blank value. After the solution was mixed by shaking the plate at 300 rpm for 1 minute, the solution was reacted at 25° C. for 1 hour. Then, the reaction solution was discarded, and the plate was washed for 3 times with 200 μL of rinsing fluid again. Liquid on the plate was removed, and 100 μL of a color coupler was dispensed and left to stand for 10 minutes under a light shielding condition. Finally, 100 μL of a reaction stop solution was dispensed, and within 10 minutes after the dispensing, measurement was performed at main wavelength 450 nm/reference wavelength 630 nm using a micro-plate reader. The concentration of pentosidine was determined using the calibration curve of a pentosidine standard solution, based on measurement values of the sample.
as §1, with “Biological proteins,” for “Amino acid or biological protein,”, “are” for “were”, “12,” for “8,”, “AGEs, pentosidine, CML, RAGE agonist activity and RAGE antagonist activity. Biological proteins” for “AGEs. Amino acid, biological protein”
In the same manner as in Test Example 4, except that the low molecular weight fraction prepared as mentioned above was used as a sample, quantitative determination of 3-DG was performed. In the same manner as in Test Example 4, except that the high molecular weight fraction was filtered through a 0.2 μm filter and the filtrate was used as a sample, fluorescent AGEs, pentosidine, CML, RAGE agonist activity and RAGE antagonist activity were evaluated.
as §1, with “Collagen,” for “Amino acid or biological protein,”, “14,” for “8,”, “3-DG. […]” for “3-DG, while the obtained high molecular weight fraction was used as a sample for the determination of fluorescent AGEs. Amino acid, biological protein and carbohydrates used are as follows:”

[1] = Test Example 4, amino acid 0.4 g + carbohydrate 1.8 g
[2] = Test Example 5, bovine serum albumin 0.4 g + carbohydrate 1.8 g
[3] = Test Example 5, human serum albumin 0.4 g + carbohydrate 1.8 g
[4] = Test Example 5, γ-globulin 0.4 g + carbohydrate 1.8 g
[5] = Test Example 6, collagen 0.015 g + carbohydrate 1.8 g, hydrolysed high molecular weight fraction
[6] = Test Example 3, amino acid (lysine:arginine 1:1) 0.4 g + glucose 1.8 g or maltitol 3.4 g
[7] = Test Example 3, bovine serum albumin 0.4 g + glucose 1.8 g or maltitol 3.4 g
[8] = Test Example 4, amino acid, compared with sections containing glucose and fructose
[9] = Test Example 5, bovine serum albumin, human serum albumin, γ-globulin, compared with sections containing fructose
[10] = Test Example 5, bovine serum albumin, human serum albumin, γ-globulin, compared with sections containing glucose
[11] = Test Example 6, collagen, compared with sections containing glucose and fructose

Row | SMILES | Fluorescent AGEs (fluorescent AGEs; [1]) | Fluorescent AGEs (fluorescent AGEs; [2]) | Fluorescent AGEs (fluorescent AGEs; [3]) | Fluorescent AGEs (fluorescent AGEs; [4]) | Fluorescent AGEs (fluorescent AGEs; [5]) | Pentosidine (pentosidine; [1]) | Pentosidine (pentosidine; [2]) | Pentosidine (pentosidine; [3]) | Pentosidine (pentosidine; [4]) | Pentosidine (pentosidine; [5]) | Fluorescent AGEs (fluorescent AGEs; [6]) | Fluorescent AGEs (fluorescent AGEs; [7]) | also measured
1 | O=C(CO)[C@@H](O)[C@H](O)[C@H](O)CO [Fructose] | 11.4 nmol/1 mL of reaction solution | 28 nmol/1 mL of reaction solution | 25.2 nmol/1 mL of reaction solution | 17.3 nmol/1 mL of reaction solution | 2.4 nmol/1 mL of reaction solution | 24.7 nmol/1 mL of reaction solution | 0.03 nmol/1 mL of reaction solution | 0.05 nmol/1 mL of reaction solution | 0.005 nmol/1 mL of reaction solution | 0.15 nmol/1 mL of reaction solution | – | – | –
2 | O=C[C@H](O)[C@@H](O)[C@H](O)[C@H](O)CO [Glucose] | 17.4 nmol/1 mL of reaction solution | 11 nmol/1 mL of reaction solution | 8.6 nmol/1 mL of reaction solution | 3.0 nmol/1 mL of reaction solution | 1.4 nmol/1 mL of reaction solution | 5.8 nmol/1 mL of reaction solution | 0.01 nmol/1 mL of reaction solution | 0.02 nmol/1 mL of reaction solution | 0.002 nmol/1 mL of reaction solution | 0.06 nmol/1 mL of reaction solution | 91 nmol/1 g of protein | 46 nmol/1 g of protein | –
3 | OC[C@@H](O)[C@@H](O[C@H]1O[C@H](CO)[C@@H](O)[C@H](O)[C@H]1O)[C@H](O)[C@@H](O)CO [Maltitol] | – | – | – | – | – | – | – | – | – | – | 2 nmol/1 g of protein | 7 nmol/1 g of protein | production of AGEs (fluorescent AGEs; Test Example 3, amino acids and bovine serum albumin, compared with sections containing glucose): decreased
4 | OC[C@@H](O)[C@@H](O)[C@H](O)[C@@H](O)CO [Sorbitol] | 0.4 nmol/1 mL of reaction solution | 2.0 nmol/1 mL of reaction solution | 5.4 nmol/1 mL of reaction solution | 1.3 nmol/1 mL of reaction solution | 0.5 nmol/1 mL of reaction solution | 0.8 nmol/1 mL of reaction solution | 0.03 nmol/1 mL of reaction solution | 0.02 nmol/1 mL of reaction solution | 0.002 nmol/1 mL of reaction solution | 0.05 nmol/1 mL of reaction solution | – | – | production of fluorescent AGEs (fluorescent AGEs; [8]): decreased; production of fluorescent AGEs (fluorescent AGEs; [9]): decreased; production of fluorescent AGEs (fluorescent AGEs; [10]): decreased; production of fluorescent AGEs (fluorescent AGEs; [11]): decreased; production of pentosidine (pentosidine; [8]): decreased; production of pentosidine (pentosidine; [9]): decreased; production of pentosidine (pentosidine; [10]): decreased; production of pentosidine (pentosidine; [11]): decreased

— patent publication US20130287890A1, “INHIBITOR OF THE PRODUCTION OF ADVANCED GLYCATION END PRODUCTS” (UENO FINE CHEMICALS INDUSTRY, LTD., priority 2012, published 2013)
